The numbers were not newly measured in patent EP4789665A1, “TREATMENT OF HIS HYPORESPONDERS” (NewAmsterdam Pharma B.V., priority 2021, dated 2023), which cites them from elsewhere.

For data set [1], the target named is T1, CETP (Homo sapiens, UniProt P11597).
T1 construct: endogenous in cells; host or cells: trial patients (in vivo, circulating plasma CETP)
T1 sequence (P11597 18-493): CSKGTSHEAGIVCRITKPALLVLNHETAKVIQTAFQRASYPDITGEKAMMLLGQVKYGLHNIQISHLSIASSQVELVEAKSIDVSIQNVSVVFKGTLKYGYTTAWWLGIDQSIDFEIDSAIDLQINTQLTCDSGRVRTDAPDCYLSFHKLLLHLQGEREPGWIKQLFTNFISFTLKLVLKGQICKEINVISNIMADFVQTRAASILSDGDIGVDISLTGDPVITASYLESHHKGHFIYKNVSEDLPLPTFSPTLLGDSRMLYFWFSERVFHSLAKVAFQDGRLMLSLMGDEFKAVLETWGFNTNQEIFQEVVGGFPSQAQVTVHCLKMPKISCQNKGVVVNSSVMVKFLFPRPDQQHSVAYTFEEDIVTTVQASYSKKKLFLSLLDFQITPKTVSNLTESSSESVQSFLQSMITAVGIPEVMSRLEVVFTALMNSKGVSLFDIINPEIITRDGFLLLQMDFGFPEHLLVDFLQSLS
The settings on record: in vivo; cited from earlier work.

For data set [2], the target named is T2, HMG CoA reductase (Homo sapiens, UniProt P04035).
T2 construct: host or cells: patients of the JUPITER study (in vivo)
T2 sequence (P04035 1-888): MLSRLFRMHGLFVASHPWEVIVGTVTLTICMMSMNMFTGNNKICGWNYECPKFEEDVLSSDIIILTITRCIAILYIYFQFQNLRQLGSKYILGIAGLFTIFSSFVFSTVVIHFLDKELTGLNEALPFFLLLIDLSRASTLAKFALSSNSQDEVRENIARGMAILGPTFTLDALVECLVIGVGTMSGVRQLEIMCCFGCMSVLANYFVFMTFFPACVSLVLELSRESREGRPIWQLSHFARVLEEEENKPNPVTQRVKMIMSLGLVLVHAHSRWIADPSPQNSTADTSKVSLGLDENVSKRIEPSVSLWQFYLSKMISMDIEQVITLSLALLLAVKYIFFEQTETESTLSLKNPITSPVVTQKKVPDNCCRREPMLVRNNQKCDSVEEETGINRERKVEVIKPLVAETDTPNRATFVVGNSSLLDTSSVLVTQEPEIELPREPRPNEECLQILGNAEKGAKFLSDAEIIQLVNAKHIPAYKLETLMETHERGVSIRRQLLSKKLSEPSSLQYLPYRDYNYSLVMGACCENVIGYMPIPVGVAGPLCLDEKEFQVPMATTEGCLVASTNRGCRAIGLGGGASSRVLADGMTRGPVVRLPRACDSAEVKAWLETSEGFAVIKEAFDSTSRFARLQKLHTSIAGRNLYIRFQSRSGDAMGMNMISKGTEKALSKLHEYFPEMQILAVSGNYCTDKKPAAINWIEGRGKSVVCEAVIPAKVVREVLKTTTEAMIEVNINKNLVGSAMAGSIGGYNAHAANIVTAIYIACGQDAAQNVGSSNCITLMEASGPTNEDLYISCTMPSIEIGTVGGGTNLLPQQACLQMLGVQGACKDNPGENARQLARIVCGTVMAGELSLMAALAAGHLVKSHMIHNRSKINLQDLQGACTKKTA
The settings on record: rosuvastatin 20 mg; JUPITER secondary analysis; cited from earlier work.

The target of data set [3] is T1, CETP. The settings on record: in combination with atorvastatin; cited from earlier work.

Take `CCC(CC)CC1(C(=O)Nc2ccccc2SC(=O)C(C)C)CCCCC1` [dalcetrapib]: in data set [1], the “effects on LDL-C concentrations” value was “minimal effects on LDL-C concentrations” and the “increased HDL-C by” value is 30-40%.

As for `CC(C)c1nc(N(C)S(C)(=O)=O)nc(-c2ccc(F)cc2)c1/C=C/[C@@H](O)C[C@@H](O)CC(=O)O` [rosuvastatin], the “median LDL-C lowering response” value in data set [2] is reported as 50%.

As to `CCOC(=O)N1c2ccc(C(F)(F)F)cc2[C@@H](N(Cc2cc(C(F)(F)F)cc(C(F)(F)F)c2)C(=O)OC)C[C@H]1CC` [torcetrapib], the “cardiovascular events and death” value in data set [3] was “unexpected increase in cardiovascular events and death”.
